Test results taken from patent US20210002209A1, “NOVEL CRYSTALLINE FORMS OF TAMIBAROTENE FOR TREATMENT OF CANCER” (TRANSGENEX NANOBIOTECH, INC., priority 2018, published 2021).
Converted amounts (≈) assume the structure as drawn. Where two headings read alike, the source gives them in different places.

Key:
[1] = cited from earlier work
A549 = experiment: IC50 studies, monolayer cell culture assay (CellTiter-Glo cell viability, 72 hours); assay type: cell-based; details: A549, lung
Description: (§1) Cancer cell lines listed in Table 1, were subjected for testing anti-cancer potency or the half maximal inhibitory concentration (IC50) of tamibarotene molecular complexes.
(§2) The SK-ES-1, U-2 OS, and SAOS-2 cells were cultured in a growth medium that is ATCC-formulated McCoy's 5a Medium Modified, Catalog No. 30-2007. The PC-3, PANC-1, SK-Mel-5, A549, H460, and H1299 were cultured in a growth medium that is ATCC-formulated Dulbecco's Modified Eagle's Medium (DMEM), Catalog No. 30-2002. The cells were seeded on 96-well microtiter plates with 3500 cells per well and cultured in an incubator (Model 3120, Thermo Scientific, USA) with a constant temperature at 37° C. and 5% carbon dioxide (CO2) gas for 24 hours.
(§3) The new tamibarotene molecular complexes were made into a series with concentration of 200 nM to 40 nM, 8 nM, 1.6 nM, 0.32 nM, and 0.064 nM. […]
(§4) The treated cells in the 96 well plate was then further cultured at the same conditions for 72 hours and then subjected for a final cell viability measurement. The measurement used a homogeneous method to determine the number of metabolically active cells presented in each of treatments. A testing reagent for the measurement is a mixture solution of the CellTiter-Glo® 2.0 reagent (CTG, Promega Cat #G9243, USA) and growth medium in 1:1 ratio in this respect.
(§5) The 96-well plate with the new molecular complex treated cells was taken out from incubator after the 72 hours of incubation, and the treatment solution in each well was removed using a multichannel pipette, and 100 μl of the testing reagent were added into each well. The plate was then placed on a plate shaker for 15 min. The plate was covered with a piece of aluminum foil to protect the CTG luminescence during the shaking time.
(§6) Then 90 μl of the 100 μl testing reagent were transferred into an opaque-walled 96-well plate for the CTG luminescence reading on a plate reader (SynergyH4 Hybrid Reader, Biotek, USA). The luminescence intensity of each treatment was positively correlated with the number of cells survived during the treatments.
(§7) All the treatment data was normalized by comparing with the control samples that had only growth medium without any molecular complexes. The half maximal inhibitory concentration (IC50) data was calculated using the nonlinear regression model and dose-responses (inhibition) curve built in the software. Each of treatments was performed in three replications each time and repeated three times for validation. The IC50 average […] (Avg) and standard deviation (STDV) were calculated based on the three replications.

SK-ES-1 = experiment: as above; assay type: cell-based
Description: as §1, §2, §3, §4, §5, §6, §7

H1299 = experiment: as above; assay type: cell-based
Description: as §1, §2, §3, §4, §5, §6, §7

PC-3 = experiment: as above; assay type: cell-based; details: PC-3, prostate
Description: as §1, §2, §3, §4, §5, §6, §7

SAOS = experiment: as above; assay type: cell-based; details: sarcoma
Description: as §1, §2, §3, §4, §5, §6, §7

SK-Mel-5 = experiment: as above; assay type: cell-based; details: SK-Mel-5, skin
Description: as §1, §2, §3, §4, §5, §6, §7

H460 = experiment: as above; assay type: cell-based
Description: as §1, §2, §3, §4, §5, §6, §7

U-2 OS = experiment: as above; assay type: cell-based; details: sarcoma
Description: as §1, §2, §3, §4, §5, §6, §7

[2] = system: sarcoma cell line SK-ES-1; experiment: Tumor sphere formation assay; assay type: cell-based; details: SK-ES-1 spheres, diameter over 50 μm, day 6
Text: Cancer stem cells (CSCs) are defined as a small subset of cells within a tumor with the ability to self-renew and often drive tumor progression and recurrence after chemotherapy treatment (Zhou et al. (2015) “A Reliable Parameter to Standardize the Scoring of Stem Cell Spheres,” PLOS One 10(5); e0127348). It is important to study the responses of cancer stem cells or the tumors treated with the new molecular complexes. We have assessed CSC growth using tumor sphere formation assay, which involves culturing cancer cells in low attachment plates in serum free media. Sphere size and diameter was measured using ImageJ software and statistical analysis was performed using Graph Pad Prism Software. […]
On the day 6 of seeding, 10 μl of NucBlue Live Cell Stain ReadyProbes (Invitrogen Cat #R37605, USA) were added into each well for staining to visualize the live cells under the blue fluorescent light. […] Then the plate was brought to the Keyence imaging device (Keyence America, All-in-One Fluorescence Microscope BZ-X800, USA) for image scanning. […]
The sphere image area is calculated as a sum of image area of every individual sphere with diameter over 50 μm in each treatment well. […]
The sarcoma spheres were stained with NucBlue Live Cell Stain ReadyProbes (Invitrogen Cat #R37605) and imaged under 4× objective lens on Keyence imaging scanner (Keyence America, All-in-One Fluorescence Microscope BZ-X800).

[3] = Homo sapiens, Test I, read-out: IC50 Test(I) Avg
[4] = Homo sapiens, Test II, read-out: IC50 Test (II) Avg
[5] = Homo sapiens, Test III, read-out: IC50 Test (III) Avg
[6] = Test I, read-out: IC50 Test(I) Avg
[7] = Test II, read-out: IC50 Test (II) Avg
[8] = Test III, read-out: IC50 Test (III) Avg
[9] = H1299, lung, Test I, read-out: IC50 Test(I) Avg
[10] = H1299, lung, Test II, read-out: IC50 Test (II) Avg
[11] = H1299, lung, Test III, read-out: IC50 Test (III) Avg
[12] = H460, lung, Test I, read-out: IC50 Test(I) Avg
[13] = H460, lung, Test II, read-out: IC50 Test (II) Avg
[14] = H460, lung, Test III, read-out: IC50 Test (III) Avg

In the case of CC1(C)CCC(C)(C)c2cc(NC(=O)c3ccc(C(=O)O)cc3)ccc21 [TAM, 4-[(5,5,8,8-tetramethyl-5,6,7,8-tetrahydronaphthalen-2-yl)carbamoyl]benzoic acid, reference compound], the “solubility in DMF, methanol, ethanol, DMSO, and other organic solvents” value [1] is given as “soluble”, the “solubility in acetonitrile, water, and various other buffer solutions” value ([1]; pH 3~7, from CN101200435 (B)) is given as “insoluble” and the water solubility ([1]; water, drug bank) is given as 575 ng/mL (≈ 1.64 µM). It also gave an IC50 (A549; [3]) of 59.9 µM, an IC50 (A549; [4]) of 60.6 µM and an IC50 (A549; [5]) of 57.8 µM. The IC50 (SK-ES-1; Homo sapiens, SK-ES1, SK-ES-1, sarcoma, Test I, read-out: IC50 Test(I) Avg) was > 100 µM, the IC50 (SK-ES-1; Homo sapiens, SK-ES1, SK-ES-1, sarcoma, Test II, read-out: IC50 Test (II) Avg) was 73.2 µM and the IC50 (SK-ES-1; Homo sapiens, SK-ES1, SK-ES-1, sarcoma, Test III, read-out: IC50 Test (III) Avg) was 72.5 µM. It also gave an IC50 (H1299; Homo sapiens, NCI-H1299, H1299, lung, Test I, read-out: IC50 Test(I) Avg) of 78.9 µM, an IC50 (H1299; Homo sapiens, NCI-H1299, H1299, lung, Test II, read-out: IC50 Test (II) Avg) of 67.3 µM and an IC50 (H1299; Homo sapiens, NCI-H1299, H1299, lung, Test III, read-out: IC50 Test (III) Avg) of 83 µM. The IC50 (PC-3; [3]) was > 100 µM, the IC50 (PC-3; [4]) was > 100 µM and the IC50 (PC-3; [5]) was > 100 µM. For the same molecule, the IC50 (SAOS; [6]) was 55.4 µM, the IC50 (SAOS; [7]) was 46.5 µM and the IC50 (SAOS; [8]) was > 100 µM. The IC50 (SK-Mel-5; [3]) was > 100 µM, the IC50 (SK-Mel-5; [4]) was > 100 µM and the IC50 (SK-Mel-5; [5]) was > 100 µM. For the same molecule, the IC50 (H460; Homo sapiens, NCI-H460, H460, lung, Test I, read-out: IC50 Test(I) Avg) was 69.3 µM, the IC50 (H460; Homo sapiens, NCI-H460, H460, lung, Test II, read-out: IC50 Test (II) Avg) was 58.3 µM and the IC50 (H460; Homo sapiens, NCI-H460, H460, lung, Test III, read-out: IC50 Test (III) Avg) was 67.1 µM. The IC50 (U-2 OS; Homo sapiens, U2OS, Test I, read-out: IC50 Test(I) Avg) was > 100 µM, the IC50 (U-2 OS; Homo sapiens, U2OS, Test II, read-out: IC50 Test (II) Avg) was 77.7 µM and the IC50 (U-2 OS; Homo sapiens, U2OS, Test III, read-out: IC50 Test (III) Avg) was 69.7 µM.

CC1(C)CCC(C)(C)c2cc(NC(=O)c3ccc(C(=O)O)cc3)ccc21.O=C(O)c1ccc(-c2ccccc2)cc1 [TAM-biphenyl-4-carboxylic acid] showed an IC50 (A549; [6]) of 49.3 µM, an IC50 (A549; [7]) of 41.3 µM and an IC50 (A549; [8]) of 46.3 µM. For the same molecule, the IC50 (H1299; [9]) was 65.5 µM, the IC50 (H1299; [10]) was 59.8 µM and the IC50 (H1299; [11]) was 65.3 µM. The IC50 (SAOS; [6]) was 43.5 µM, the IC50 (SAOS; [7]) was 37.1 µM and the IC50 (SAOS; [8]) was > 100 µM. The IC50 (H460; [12]) was 56 µM, the IC50 (H460; [13]) was 51.7 µM and the IC50 (H460; [14]) was 55.2 µM.

Work on CC1(C)CCC(C)(C)c2cc(NC(=O)c3ccc(C(=O)O)cc3)ccc21.O=C(O)c1ccccc1-c1ccccc1C(=O)O [TAM-diphenic acid] yielded an IC50 (A549; [6]) of 21.7 µM, an IC50 (A549; [7]) of 38.9 µM and an IC50 (A549; [8]) of 26.6 µM. For the same molecule, the IC50 (H1299; [9]) was 40.8 µM, the IC50 (H1299; [10]) was 41.4 µM and the IC50 (H1299; [11]) was 39.9 µM. It also gave an IC50 (H460; [12]) of 35 µM, an IC50 (H460; [13]) of 34.7 µM and an IC50 (H460; [14]) of 32.3 µM.

With CC1(C)CCC(C)(C)c2cc(NC(=O)c3ccc(C(=O)O)cc3)ccc21.O=C(O)c1cc(O)c(O)c(O)c1 [TAM-gallic acid] the “tumor spheres size compared with the parent molecule” value [2] was “reduced tumor spheres size”, the IC50 (A549; [6]) was 39.9 µM and the IC50 (A549; [7]) was 43.3 µM. For the same molecule, the IC50 (A549; [8]) was 39.9 µM, the IC50 (SK-ES-1; SK-ES-1, sarcoma, Test I, read-out: IC50 Test(I) Avg) was 10.1 µM and the IC50 (SK-ES-1; SK-ES-1, sarcoma, Test II, read-out: IC50 Test (II) Avg) was 5.94 µM. It also gave an IC50 (SK-ES-1; SK-ES-1, sarcoma, Test III, read-out: IC50 Test (III) Avg) of 6.76 µM, an IC50 (H1299; [9]) of 11.2 µM and an IC50 (H1299; [10]) of 24.8 µM. It also gave an IC50 (H1299; [11]) of 11.7 µM, an IC50 (PC-3; [6]) of 81 µM and an IC50 (PC-3; [7]) of 90.3 µM. For the same molecule, the IC50 (PC-3; [8]) was 108 µM, the IC50 (SAOS; [6]) was 11.6 µM and the IC50 (SAOS; [7]) was 9.98 µM. For the same molecule, the IC50 (SAOS; [8]) was 14.9 µM, the IC50 (SK-Mel-5; [6]) was 47.5 µM and the IC50 (SK-Mel-5; [7]) was 64.2 µM. The IC50 (SK-Mel-5; [8]) was 88.5 µM, the IC50 (H460; [12]) was 42 µM and the IC50 (H460; [13]) was 41.9 µM. For the same molecule, the IC50 (H460; [14]) was 41.3 µM, the IC50 (U-2 OS; [6]) was 16.4 µM and the IC50 (U-2 OS; [7]) was 13 µM. It also gave an IC50 (U-2 OS; [8]) of 10.6 µM.

CC1(C)CCC(C)(C)c2cc(NC(=O)c3ccc(C(=O)O)cc3)ccc21.NC(=O)c1cccnc1 [TAM-nicotinamide] gave an IC50 (A549; [6]) of 56.6 µM, an IC50 (A549; [7]) of 59.1 µM and an IC50 (A549; [8]) of 49.8 µM. For the same molecule, the IC50 (H1299; [9]) was 49.7 µM, the IC50 (H1299; [10]) was 55.9 µM and the IC50 (H1299; [11]) was 53.9 µM. It also gave an IC50 (H460; [12]) of 56.6 µM, an IC50 (H460; [13]) of 51.1 µM and an IC50 (H460; [14]) of 50.3 µM.
